Assay results from US6630469B2, “5-HT7 receptor antagonists” (Bristol-Myers Squibb Company, priority 2000, dated 2003).

Molecular target: T1, human 5-HT7 receptor (Homo sapiens, UniProt P34969)
T1 construct: expressed in transfected cells; host or cells: CHO cells
Assay: 5-HT7 Receptor Binding Assay
Conditions: membranes of CHO cells expressing human 5-HT7 receptor; 1 nM 3H-5-carboxamidotryptamine; 25° C., 60 minutes
Method in brief: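 Membranes from CHO cells expressing human 5-HT7, 30 ug protein per well, incubated 60 min at 25° C in 50 mM HEPES with 0.1–1000 nM test compound and 1 nM ^3H-5-carboxamidotryptamine. Non-specific binding with 10 uM serotonin. Filtration and scintillation counting; IC50 by non-linear regression.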

T1 sequence (P34969 whole entry): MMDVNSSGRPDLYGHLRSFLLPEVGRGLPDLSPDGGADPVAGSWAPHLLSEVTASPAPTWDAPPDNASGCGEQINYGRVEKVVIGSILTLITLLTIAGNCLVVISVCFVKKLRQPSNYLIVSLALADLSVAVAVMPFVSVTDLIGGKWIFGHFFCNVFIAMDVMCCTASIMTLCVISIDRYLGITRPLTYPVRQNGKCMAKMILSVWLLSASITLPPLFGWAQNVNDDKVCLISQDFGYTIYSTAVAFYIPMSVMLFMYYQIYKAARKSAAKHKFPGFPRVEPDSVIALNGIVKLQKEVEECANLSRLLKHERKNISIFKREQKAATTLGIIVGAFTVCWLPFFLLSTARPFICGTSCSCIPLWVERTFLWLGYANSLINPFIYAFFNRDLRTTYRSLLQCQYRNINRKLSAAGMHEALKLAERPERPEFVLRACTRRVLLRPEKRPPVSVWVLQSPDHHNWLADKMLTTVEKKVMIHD

IC50	Compound
51 to 100 nM	CC(Nc1ccnc(NCCc2ccc(Cl)c(Cl)c2)n1)c1ccccc1 (stereo not shown) [N^2-[2-(3,4-Dichlorophenyl)ethyl]-N^4-(1-phenylethyl)pyrimidine-2,4-diamine]
≤ 50 nM	CC(Nc1ccnc(NCCc2cccc(Cl)c2)n1)c1ccccc1 (stereo not shown) [N^2-[2-(3-Chlorophenyl)ethyl]-N^4-(1-phenylethyl)pyrimidine-2,4-diamine]
≤ 50 nM	CC(Nc1ccnc(NCCc2cccc(F)c2)n1)c1ccccc1 (stereo not shown) [N^2-[2-(3-Fluorophenyl)ethyl]-N^4-(1-phenylethyl)pyrimidine-2,4-diamine]
≤ 50 nM	COc1cccc(CCNc2nccc(NC(C)c3ccccc3)n2)c1 (stereo not shown) [N^2-[2-(3-Methoxyphenyl)ethyl]-N^4-(1-phenylethyl)pyrimidine-2,4-diamine]
51 to 100 nM	CC(Nc1ccnc(NCCc2ccc(Cl)cc2)n1)c1ccccc1 (stereo not shown) [N^2-[2-(4-Chlorophenyl)ethyl]-N^4-(1-phenylethyl)pyrimidine-2,4-diamine]
≤ 50 nM	CC(C)(Nc1ccnc(NCCc2ccccc2)n1)c1ccccc1 [N^4-(1-Methyl-1-phenyl)ethyl)-N^2-(2-phenylethyl)pyrimidine-2,4-diamine]
51 to 100 nM	CC(Nc1ccnc(NCCCc2ccccc2)n1)c1ccccc1 (stereo not shown) [N^4-(1-Phenylethyl)-N^2-(3-phenylpropyl)pyrimidine-2,4-diamine]
51 to 100 nM	CC(Nc1ccnc(NCCc2cccc(C(F)(F)F)c2)n1)c1ccccc1 (stereo not shown) [N^4-(1-Phenylethyl)-N^2-{2-[3-(trifluoromethyl)phenyl]ethyl}pyrimidine-2,4-diamine]
51 to 100 nM	Clc1ccc(CNc2ccnc(NCCc3ccccc3)n2)c(Cl)c1 [N^4-(2,4-Dichlorophenylmethyl)-N^2-(2-phenylethyl)pyrimidine-2,4-diamine]
≤ 50 nM	Clc1ccccc1CNc1ccnc(NCCc2ccccc2)n1 [N^4-(2-Chlorophenylmethyl)-N^2-(2-phenylethyl)pyrimidine-2,4-diamine]
≤ 50 nM	COc1ccccc1CNc1ccnc(NCCc2ccccc2)n1 [N^4-(2-Methoxyphenylmethyl)-N^2-(2-phenylethyl)pyrimidine-2,4-diamine]
101 to 200 nM	Clc1ccc(CNc2ccnc(NCCOc3ccccc3)n2)cc1Cl [N^4-(3,4-Dichlorophenylmethyl)-N^2-(2-phenoxyethyl)pyrimidine-2,4-diamine]
101 to 200 nM	Clc1ccc(CNc2ccnc(NCCc3ccccc3)n2)cc1Cl [N^4-(3,4-Dichlorophenylmethyl)-N^2-(2-phenylethyl)pyrimidine-2,4-diamine]
≤ 50 nM	Fc1ccc(CNc2ccnc(NCCOc3ccccc3)n2)cc1F [N^4-(3,4-Difluorophenylmethyl)-N^2-(2-phenoxyethyl)pyrimidine-2,4-diamine]
≤ 50 nM	Fc1ccc(CNc2ccnc(NCCc3ccccc3)n2)cc1F [N^4-(3,4-Difluorophenylmethyl)-N^2-(2-phenylethyl)pyrimidine-2,4-diamine]
101 to 200 nM	Fc1cc(F)cc(CNc2ccnc(NCCOc3ccccc3)n2)c1 [N^4-(3,5-Difluorophenylmethyl)-N^2-(2-phenoxyethyl)pyrimidine-2,4-diamine]
101 to 200 nM	COc1cc(CNc2ccnc(NCCOc3ccccc3)n2)cc(OC)c1 [N^4-(3,5-Dimethoxyphenylmethyl)-N^2-(2-phenoxyethyl)pyrimidine-2,4-diamine]
≤ 50 nM	Fc1ccc(CNc2ccnc(NCCOc3ccccc3)n2)cc1Cl [N^4-(3-Chloro-4-fluorophenylmethyl)-N^2-(2-phenoxyethyl)pyrimidine-2,4-diamine]
≤ 50 nM	Fc1ccc(CNc2ccnc(NCCc3ccccc3)n2)cc1Cl [N^4-(3-Chloro-4-fluorophenylmethyl)-N^2-(2-phenylethyl)pyrimidine-2,4-diamine]
≤ 50 nM	Cc1ccc(CNc2ccnc(NCCOc3ccccc3)n2)cc1Cl [N^4-(3-Chloro-4-methylphenylmethyl)-N^2-(2-phenoxyethyl)pyrimidine-2,4-diamine]
101 to 200 nM	Cc1ccc(CNc2ccnc(NCCc3ccccc3)n2)cc1Cl [N^4-(3-Chloro-4-methylphenylmethyl)-N^2-(2-phenylethyl)pyrimidine-2,4-diamine]
≤ 50 nM	Clc1cccc(CNc2ccnc(NCCOc3ccccc3)n2)c1 [N^4-(3-Chlorophenylmethyl)-N^2-(2-phenoxyethyl)pyrimidine-2,4-diamine]
101 to 200 nM	Clc1cccc(CNc2ccnc(NCCc3ccccc3)n2)c1 [N^4-(3-Chlorophenylmethyl)-N^2-(2-phenylethyl)pyrimidine-2,4-diamine]
51 to 100 nM	Fc1cccc(CNc2ccnc(NCCOc3ccccc3)n2)c1 [N^4-(3-Fluorophenylmethyl)-N^2-(2-phenoxyethyl)pyrimidine-2,4-diamine]
≤ 50 nM	Fc1cccc(CNc2ccnc(NCCc3ccccc3)n2)c1 [N^4-(3-Fluorophenylmethyl)-N^2-(2-phenylethyl)pyrimidine-2,4-diamine]
≤ 50 nM	COc1cccc(CNc2ccnc(NCCc3ccccc3)n2)c1 [N^4-(3-Methoxyphenylmethyl)-N^2-(2-phenylethyl)pyrimidine-2,4-diamine]
≤ 50 nM	Cc1cccc(CNc2ccnc(NCCOc3ccccc3)n2)c1 [N^4-(3-Methylphenylmethyl)-N^2-(2-phenoxyethyl)pyrimidine-2,4-diamine]
≤ 50 nM	Cc1cccc(CNc2ccnc(NCCc3ccccc3)n2)c1 [N^4-(3-Methylphenylmethyl)-N^2-(2-phenylethyl)pyrimidine-2,4-diamine]
≤ 50 nM	c1ccc(OCCNc2nccc(NCc3cccc4c3OCO4)n2)cc1 [N^4-(4-Benzodioxolylmethyl)-N^2-(2-phenoxyethyl)pyrimidine-2,4-diamine]

The next lines start with the compound.

Compound	IC50
CC(Nc1ccnc(N(C)CCc2ccccc2)n1)c1ccccc1 (stereo not shown) [N^2-(Methyl)-N^2-(2-phenylethyl)-N^4-(1-phenylethyl)pyrimidine-2,4-diamine]	≤ 50 nM
CC(Nc1ccnc(NCCc2ccccc2F)n1)c1ccccc1 (stereo not shown) [N^2-[2-(2-Fluorophenyl)ethyl]-N^4-(1-phenylethyl)pyrimidine-2,4-diamine]	≤ 50 nM
COc1ccccc1CCNc1nc(C)cc(N[C@@H](C)c2ccccc2)n1 [N^2-[2-(2-Methoxyphenyl)ethyl]-6-methyl-N^4-[(1S)-1-phenylethyl]pyrimidine-2,4-diamine]	≤ 50 nM
COc1ccccc1CCNc1nccc(NC(C)c2ccccc2)n1 (stereo not shown) [N^2-[2-(2-Methoxyphenyl)ethyl]-N^4-(1-phenylethyl)pyrimidine-2,4-diamine]	51 to 100 nM
COc1cc(CCNc2nc(C)cc(N[C@@H](C)c3ccccc3)n2)cc(OC)c1 [N^2-[2-(3,5-Dimethoxyphenyl)ethyl]-6-methyl-N^4-[(1S)-1-phenylethyl]pyrimidine-2,4-diamine]	51 to 100 nM
CC(=O)Nc1cccc(CCNc2nc(C)cc(N[C@@H](C)c3ccccc3)n2)c1 [N^2-[2-(3-Acetamidophenyl)ethyl]-6-methyl-N^4-[(1S)-1-phenylethyl]pyrimidine-2,4-diamine]	101 to 200 nM
COc1ccc(CCNc2nc(C)cc(N[C@@H](C)c3ccccc3)n2)cc1Br [N^2-[2-(3-Bromo-4-methoxyphenyl)ethyl]-6-methyl-N^4-[(1S)-1-phenylethyl]pyrimidine-2,4-diamine]	51 to 100 nM
Cc1cc(N[C@@H](C)c2ccccc2)nc(NCCc2cccc(Br)c2)n1 [N^2-[2-(3-Bromophenyl)ethyl]-6-methyl-N^4-[(1S)-1-phenylethyl]pyrimidine-2,4-diamine]	≤ 50 nM
Cc1cc(N[C@@H](C)c2ccccc2)nc(NCCc2cccc(C#N)c2)n1 [N^2-[2-(3-Cyanophenyl)ethyl]-6-methyl-N^4-[(1S)-1-phenylethyl]pyrimidine-2,4-diamine]	≤ 50 nM
Cc1cc(N[C@@H](C)c2ccccc2)nc(NCCc2cccc(F)c2)n1 [N^2-[2-(3-Fluorophenyl)ethyl]-6-methyl-N^4-[(1S)-1-phenylethyl]pyrimidine-2,4-diamine]	≤ 50 nM
COc1cccc(CCNc2nc(C)cc(N[C@@H](C)c3ccccc3)n2)c1 [N^2-[2-(3-Methoxyphenyl)ethyl]-6-methyl-N^4-[(1S)-1-phenylethyl]pyrimidine-2,4-diamine]	≤ 50 nM
CC(Nc1ccnc(NCCc2cccc3c2OCO3)n1)c1ccccc1 (stereo not shown) [N^2-[2-(4-Benzodioxolyl)ethyl]-N^4-(1-phenylethyl)pyrimidine-2,4-diamine]	101 to 200 nM
Cc1cc(N[C@@H](C)c2ccccc2)nc(NCCc2ccc(Cl)cc2)n1 [N^2-[2-(4-Chlorophenyl)ethyl]-6-methyl-N^4-[(1S)-1-phenylethyl]pyrimidine-2,4-diamine]	≤ 50 nM
CC(Nc1ccnc(NCCc2ccc(F)cc2)n1)c1ccccc1 (stereo not shown) [N^2-[2-(4-Fluorophenyl)ethyl]-N^4-(1-phenylethyl)pyrimidine-2,4-diamine]	≤ 50 nM
CC(Nc1ccnc(NCCc2ccc(O)cc2)n1)c1ccccc1 (stereo not shown) [N^2-[2-(4-Hydroxyphenyl)ethyl]-N^4-(1-phenylethyl)pyrimidine-2,4-diamine]	≤ 50 nM
COc1ccc(CCNc2nc(C)cc(N[C@@H](C)c3ccccc3)n2)cc1 [N^2-[2-(4-Methoxyphenyl)ethyl]-6-methyl-N^4-[(1S)-1-phenylethyl]pyrimidine-2,4-diamine]	101 to 200 nM
COc1ccc(CCNc2nccc(NC(C)c3ccccc3)n2)cc1 (stereo not shown) [N^2-[2-(4-Methoxyphenyl)ethyl]-N^4-(1-phenylethyl)pyrimidine-2,4-diamine]	101 to 200 nM
Cc1ccc(CCNc2nc(C)cc(N[C@@H](C)c3ccccc3)n2)cc1 [N^2-[2-(4-Methylphenyl)ethyl]-6-methyl-N^4-[(1S)-1-phenylethyl]pyrimidine-2,4-diamine]	≤ 50 nM
Cc1ccc(CCNc2nccc(NC(C)c3ccccc3)n2)cc1 (stereo not shown) [N^2-[2-(4-Methylphenyl)ethyl]-N^4-(1-phenylethyl)pyrimidine-2,4-diamine]	≤ 50 nM
CC(CNc1nccc(NC(C)c2ccccc2)n1)c1ccccc1 (stereo not shown) [N^4-(1-Phenylethyl)-N^2-(2-phenylpropyl)pyrimidine-2,4-diamine]	51 to 100 nM
